The source made the active and inactive calls.
Experiments:
Cytochrome P450 2C9 = Cytochrome P450 2C9 (Homo sapiens, UniProt P11712)
Cytochrome P450 3A4 = Cytochrome P450 3A4 (Homo sapiens, UniProt P08684);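 also: CYP3A4 tested as one member of a cytochrome P450 panel screen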
[1] = cytotoxicity toward DRD oncogenic fibroblasts, dose response, cell-based, non-viral oncogenic, luminescence (AID 1934); assay type: functional; settings: Homo sapiens
BJ [2] = assay: cells; assay type: functional, cell-based; settings: Homo sapiens
BJ [3] = assay: cytotoxicity toward BJ-TERT fibroblasts, dose response, cell-based, RAS-independent, luminescence (AID 1933); assay type: functional; settings: Homo sapiens
BJ [4] = assay: cytotoxicity toward BJ-TERT-LT-ST fibroblasts, dose response, cell-based, RAS-independent, luminescence (AID 1935); assay type: functional; settings: Homo sapiens;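 also: BJ fibroblasts immortalized with TERT plus LT and ST oncogenes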
[5] = cytotoxicity toward NIH3T3 fibroblasts, dose response, counter-screen, cell-based, ATP luminescence, mouse fibroblasts (AID 2010); assay type: functional;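 also: cells exposed to compound for about 90 hours before reading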
Genome polyprotein = Genome polyprotein (dengue virus type 2, UniProt P29990); assay: Dengue-2 NS5 methyltransferase inhibitors, primary screen, biochemical, confirmation dose response (AID 588689); assay type: functional
[6] = control 3'UTR Renilla luciferase suppression, dose response, counter-screen for Shn3 inhibitor project, cell-based, Clone20-Shn3RL, cherry-picked (AID 624133); assay type: functional
[7] = inhibitors of intracellular T. cruzi replication, confirmation, NIH3T3 host cells, beta-gal luminescence (AID 2044); assay type: functional, cell-based;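 also: intracellular parasites grown in NIH/3T3 mouse fibroblasts as host cells; luminescent beta-galactosidase reporter signal from transgenic T. cruzi replicating inside host cells; inhibitors lower the luminescence signal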
[8] = Shn3 3'UTR reporter inhibitors, dose response, cell-based, Clone20 osteoblasts, firefly luciferase, cherry-picked (AID 624132); assay type: functional;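 also: firefly luciferase luminescence from reporter carrying the Shn3 3'UTR in osteoblasts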
[9] = target: T1, RNA-binding protein pos-1 (Caenorhabditis elegans, UniProt G5EF15); assay: inhibitors of POS-1/mex-3 RNA binding, dose response, biochemical, fluorescence polarization (AID 1964);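 also: purified POS-1 fused to maltose binding protein made in E. coli; potency of compounds blocking POS-1 binding to fluorescent RNA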
T1 sequence (G5EF15 whole entry): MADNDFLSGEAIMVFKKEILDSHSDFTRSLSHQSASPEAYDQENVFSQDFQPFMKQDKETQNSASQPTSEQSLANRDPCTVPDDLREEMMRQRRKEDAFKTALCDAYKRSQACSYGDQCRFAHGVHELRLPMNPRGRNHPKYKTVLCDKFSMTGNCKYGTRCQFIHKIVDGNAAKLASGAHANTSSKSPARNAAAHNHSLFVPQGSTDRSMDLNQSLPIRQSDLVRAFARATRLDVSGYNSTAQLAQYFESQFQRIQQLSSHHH

[10] = Luminescence Cell-Based Dose Confirmation HTS to Identify Activators of 5'UTR Stem-Loop Driven Alpha-Synuclein mRNA Translation in H4 Neuroglioblastoma Cells. [Related pubchem assays: 1829 (Project Summary), 1814 (Primary HTS)]; assay type: functional
H4 = assay: Luminescence Cell-Based Dose Response HTS to Identify Activators of 5'UTR Stem-Loop Driven Prion Protein mRNA Translation in H4 Neuroglioblastoma Cells. [Related pubchem assays: 1829 (Project Summary), 1814 (Primary HTS)]; assay type: functional; settings: Homo sapiens
[11] = target: T2, Zinc finger protein mex-5 (Caenorhabditis elegans, UniProt Q9XUB2); assay: MEX-5/TCR-2 RNA interaction inhibitors, dose response, biochemical, C. elegans, fluorescence polarization (AID 1960)
T2 sequence (Q9XUB2 whole entry): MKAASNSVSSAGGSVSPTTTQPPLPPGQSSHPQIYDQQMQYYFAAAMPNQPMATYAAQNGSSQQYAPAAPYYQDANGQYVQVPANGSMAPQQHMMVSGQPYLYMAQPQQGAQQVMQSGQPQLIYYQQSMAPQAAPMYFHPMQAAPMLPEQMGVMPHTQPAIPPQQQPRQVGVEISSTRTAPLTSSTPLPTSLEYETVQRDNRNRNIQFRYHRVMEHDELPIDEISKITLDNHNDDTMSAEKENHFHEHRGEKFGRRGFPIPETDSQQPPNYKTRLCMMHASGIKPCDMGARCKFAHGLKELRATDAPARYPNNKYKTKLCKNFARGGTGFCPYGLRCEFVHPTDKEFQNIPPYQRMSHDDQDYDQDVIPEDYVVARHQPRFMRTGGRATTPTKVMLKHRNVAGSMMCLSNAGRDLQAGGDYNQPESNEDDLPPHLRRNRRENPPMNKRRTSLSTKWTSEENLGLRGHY

[12] = Luminescence Cell-Based Dose Response HTS to Identify Activators of Luciferase Translation or Activity in H4 […] Cells. [Related pubchem assays: 1829 (Project Summary), 1814 (Primary HTS)]; assay type: functional
Cytochrome P450 2C19 = Cytochrome P450 2C19 (Homo sapiens, UniProt P33261); assay: Cytochrome panel assay with activity outcomes. Panel member name: p450-cyp2c19 Compounds with AC50 equal or less than 10 uM are considered active; assay type: functional; settings: read-out: AC50
Cytochrome P450 2D6 = Cytochrome P450 2D6 (Homo sapiens, UniProt P10635);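 also: CYP2D6 member of a cytochrome P450 panel assay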
Cytochrome P450 1A2 = target: T3, Cytochrome P450 1A2 (Homo sapiens, UniProt P05177);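 also: PubChem cytochrome P450 panel assay, CYP1A2 panel member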
T3 sequence (P05177 whole entry): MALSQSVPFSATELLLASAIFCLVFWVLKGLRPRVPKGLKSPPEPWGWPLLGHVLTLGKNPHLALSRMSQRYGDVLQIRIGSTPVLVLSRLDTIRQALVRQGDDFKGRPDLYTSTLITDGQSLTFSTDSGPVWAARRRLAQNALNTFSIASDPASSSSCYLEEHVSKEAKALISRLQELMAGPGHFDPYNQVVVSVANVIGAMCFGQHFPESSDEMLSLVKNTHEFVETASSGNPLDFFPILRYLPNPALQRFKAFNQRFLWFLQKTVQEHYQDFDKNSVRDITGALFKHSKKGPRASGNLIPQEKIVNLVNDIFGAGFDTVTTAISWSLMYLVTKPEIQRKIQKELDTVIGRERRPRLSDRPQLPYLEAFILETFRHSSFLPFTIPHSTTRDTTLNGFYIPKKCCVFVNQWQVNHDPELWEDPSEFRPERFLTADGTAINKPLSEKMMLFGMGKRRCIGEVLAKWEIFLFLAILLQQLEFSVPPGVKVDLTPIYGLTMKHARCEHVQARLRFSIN

[13] = inhibitors of SNCA 5'UTR-driven reporter translation, confirmation, H4 neuroglioma cells, luminescence (AID 1988); assay type: functional, cell-based
[14] = Luminescence Cell-Based Dose Response HTS to Identify Inhibitors of 5'UTR Stem-Loop Driven Prion Protein mRNA Translation in H4 Neuroglioblastoma Cells. [Related pubchem assays: 1827 (Project Summary), 1813 (Primary HTS)]; assay type: functional
[15] = inhibitors of firefly luciferase expression or activity, dose response, H4 neuroglioma cells, luminescence (AID 1990); assay type: functional, cell-based
[16] = HepG2 cell cytotoxicity, dose response, cytotoxicity control for Shn3 inhibitor project, CellTiter-Glo, cherry-picked (AID 624134); assay type: functional, cell-based

Chain of Cytochrome P450 2C9 (P11712 whole entry): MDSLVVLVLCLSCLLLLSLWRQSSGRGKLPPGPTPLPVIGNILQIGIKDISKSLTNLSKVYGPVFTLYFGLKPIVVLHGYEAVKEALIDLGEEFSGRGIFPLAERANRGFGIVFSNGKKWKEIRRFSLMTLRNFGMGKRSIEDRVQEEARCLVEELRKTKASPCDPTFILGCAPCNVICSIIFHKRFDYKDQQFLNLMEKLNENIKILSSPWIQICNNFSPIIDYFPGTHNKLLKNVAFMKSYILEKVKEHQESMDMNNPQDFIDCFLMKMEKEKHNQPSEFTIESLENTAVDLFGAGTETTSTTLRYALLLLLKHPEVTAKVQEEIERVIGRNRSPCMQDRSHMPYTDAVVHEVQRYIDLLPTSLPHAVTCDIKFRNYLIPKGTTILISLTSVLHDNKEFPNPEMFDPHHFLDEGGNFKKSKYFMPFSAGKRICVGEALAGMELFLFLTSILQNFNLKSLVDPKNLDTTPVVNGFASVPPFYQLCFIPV
Chain of Genome polyprotein (P29990 2492-3391 limits assumed): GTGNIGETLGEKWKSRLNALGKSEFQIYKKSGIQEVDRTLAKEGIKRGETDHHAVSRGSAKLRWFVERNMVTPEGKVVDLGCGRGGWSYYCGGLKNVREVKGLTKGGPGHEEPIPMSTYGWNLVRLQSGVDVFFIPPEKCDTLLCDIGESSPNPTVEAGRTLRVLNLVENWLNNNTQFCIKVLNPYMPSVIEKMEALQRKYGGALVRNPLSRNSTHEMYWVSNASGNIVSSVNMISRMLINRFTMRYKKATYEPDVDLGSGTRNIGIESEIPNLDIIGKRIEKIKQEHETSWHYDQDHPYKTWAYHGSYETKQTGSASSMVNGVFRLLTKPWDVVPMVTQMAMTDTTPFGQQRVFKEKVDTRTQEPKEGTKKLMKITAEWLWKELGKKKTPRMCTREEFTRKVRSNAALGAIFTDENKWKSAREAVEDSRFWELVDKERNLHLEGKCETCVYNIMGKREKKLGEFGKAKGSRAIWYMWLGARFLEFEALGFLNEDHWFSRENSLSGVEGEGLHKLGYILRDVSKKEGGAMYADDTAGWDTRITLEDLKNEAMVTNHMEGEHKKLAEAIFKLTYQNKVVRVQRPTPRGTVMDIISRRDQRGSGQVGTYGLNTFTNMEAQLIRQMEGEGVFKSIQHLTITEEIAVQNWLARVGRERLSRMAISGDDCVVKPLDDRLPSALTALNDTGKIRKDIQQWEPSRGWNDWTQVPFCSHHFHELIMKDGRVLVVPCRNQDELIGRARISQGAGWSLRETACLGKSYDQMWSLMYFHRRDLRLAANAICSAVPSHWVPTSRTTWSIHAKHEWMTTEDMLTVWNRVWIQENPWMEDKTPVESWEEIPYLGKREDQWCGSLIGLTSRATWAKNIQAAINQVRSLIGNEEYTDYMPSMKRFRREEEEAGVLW
Chain of Cytochrome P450 3A4 (P08684 whole entry): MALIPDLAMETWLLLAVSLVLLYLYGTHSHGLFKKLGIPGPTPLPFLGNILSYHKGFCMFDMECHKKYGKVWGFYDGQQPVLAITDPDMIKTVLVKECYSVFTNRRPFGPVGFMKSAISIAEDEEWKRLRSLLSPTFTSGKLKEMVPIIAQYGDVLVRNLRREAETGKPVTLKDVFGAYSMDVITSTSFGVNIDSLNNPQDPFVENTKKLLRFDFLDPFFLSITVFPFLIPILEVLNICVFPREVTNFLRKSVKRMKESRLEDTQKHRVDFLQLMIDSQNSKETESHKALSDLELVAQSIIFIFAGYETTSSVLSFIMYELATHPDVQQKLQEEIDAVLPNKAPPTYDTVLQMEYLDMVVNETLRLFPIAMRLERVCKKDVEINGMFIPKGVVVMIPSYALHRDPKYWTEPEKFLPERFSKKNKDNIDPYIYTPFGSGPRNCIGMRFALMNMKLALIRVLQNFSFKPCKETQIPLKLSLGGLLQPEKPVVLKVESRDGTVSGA
Chain of Cytochrome P450 2D6 (P10635 whole entry): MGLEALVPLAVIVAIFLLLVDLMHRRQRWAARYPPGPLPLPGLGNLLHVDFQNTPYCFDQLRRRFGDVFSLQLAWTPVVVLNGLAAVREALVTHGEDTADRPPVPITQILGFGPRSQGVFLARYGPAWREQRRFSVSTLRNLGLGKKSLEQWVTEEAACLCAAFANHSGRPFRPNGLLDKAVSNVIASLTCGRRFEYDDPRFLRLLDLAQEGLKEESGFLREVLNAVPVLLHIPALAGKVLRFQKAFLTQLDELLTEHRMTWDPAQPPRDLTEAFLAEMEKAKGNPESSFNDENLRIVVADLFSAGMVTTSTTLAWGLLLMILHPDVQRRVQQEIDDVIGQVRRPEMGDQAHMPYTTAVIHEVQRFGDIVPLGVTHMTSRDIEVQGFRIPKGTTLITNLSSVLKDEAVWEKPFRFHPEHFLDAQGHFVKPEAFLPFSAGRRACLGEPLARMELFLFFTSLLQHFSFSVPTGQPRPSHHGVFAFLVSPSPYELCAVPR
Chain of Cytochrome P450 2C19 (P33261 whole entry): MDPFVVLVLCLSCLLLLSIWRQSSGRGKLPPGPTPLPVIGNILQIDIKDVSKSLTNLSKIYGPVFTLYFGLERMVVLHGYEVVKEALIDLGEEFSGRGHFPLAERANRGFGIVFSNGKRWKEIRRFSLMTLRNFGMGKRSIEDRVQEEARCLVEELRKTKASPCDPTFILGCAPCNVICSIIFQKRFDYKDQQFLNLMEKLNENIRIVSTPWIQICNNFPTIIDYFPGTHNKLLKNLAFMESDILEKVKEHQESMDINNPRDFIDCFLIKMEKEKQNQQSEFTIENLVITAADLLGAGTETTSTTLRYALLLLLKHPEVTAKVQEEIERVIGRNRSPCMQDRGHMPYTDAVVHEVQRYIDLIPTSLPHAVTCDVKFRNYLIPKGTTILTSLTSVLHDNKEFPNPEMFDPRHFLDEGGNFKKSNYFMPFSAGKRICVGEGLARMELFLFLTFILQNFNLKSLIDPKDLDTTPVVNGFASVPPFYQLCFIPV

Question: What does the source list for O=C(CN1C(=O)c2ccccc2C1=O)NCC(=O)OCC(=O)c1ccc(Br)cc1?
Answer: AC50 (Cytochrome P450 2C9): inconclusive; AC50 (Cytochrome P450 3A4): 3.55 µM (inconclusive)

Question: Which EC50 [1] does the source give for COc1cc(C(=O)c2cocc2C(=O)c2ccc3c(c2)OCO3)cc(OC)c1OC here?
Answer: 1.45 µM (active)

Question: And the EC50 (BJ [2])?
Answer: 38.6 µM (inconclusive)

Question: What about the EC50 (BJ [3]) of the same compound?
Answer: 2.71 µM (active)

Question: What about the EC50 (BJ [4]) of the same compound?
Answer: 2.57 µM (inconclusive)

Question: With C=CS(=O)(=O)c1sc(Cl)c(N2CCOCC2)c1[N+](=O)[O-] as the compound, how does the EC50 [5] read?
Answer: 7.27 µM (active)

Question: And the IC50 (Genome polyprotein)?
Answer: 11 µM (active)

Question: And the AC50 [6]?
Answer: 13.3 µM (active)

Question: What about the EC50 [7] of the same compound?
Answer: 5.42 µM (active)

Question: And the AC50 [8]?
Answer: 1.31 µM (active)

Question: Which EC50 [9] does the source give for CC(=O)Nc1cccc(Oc2nc(-c3ccccn3)nc3ccccc23)c1 here?
Answer: 79.3 µM (active)

Question: What about the EC50 [10] of the same compound?
Answer: 92.7 µM (active)

Question: And the EC50 (H4)?
Answer: 7.56 µM (active)

Question: What about the EC50 [11] of the same compound?
Answer: 5.2 µM (active)

Question: What about the EC50 [12] of the same compound?
Answer: 11.8 µM (active)

Question: Which IC50 (Genome polyprotein) does the source give for COC(=O)C1=CN(c2cccc(C)c2)C=C(C(=O)OC)C1c1cc(OC)c(O)c([N+](=O)[O-])c1 here?
Answer: 56.5 µM (active)

Question: With CC(=O)c1cccc(NC(=O)Cc2ccc3c(c2)CCCC3)c1 as the compound, how does the AC50 (Cytochrome P450 2C9) read?
Answer: inconclusive

Question: And the AC50 (Cytochrome P450 2C19)?
Answer: 3.16 µM (inconclusive)

Question: What about the AC50 (Cytochrome P450 2D6) of the same compound?
Answer: 4.47 µM (inconclusive)

Question: What about the AC50 (Cytochrome P450 1A2) of the same compound?
Answer: 25.1 µM (inconclusive)

Question: For CCC(=O)c1ccc(OCC(=O)Nc2ccccc2N2CCCCC2)cc1, which EC50 [1] is on record?
Answer: > 150 µM (not active)

Question: And the EC50 (BJ [2])?
Answer: 35.6 µM (active)

Question: What about the EC50 (BJ [3]) of the same compound?
Answer: > 150 µM (not active)

Question: What about the EC50 (BJ [4]) of the same compound?
Answer: > 150 µM (not active)

Question: With CNc1nc(Cl)nc(NC(C)(C)C)n1 as the compound, how does the AC50 (Cytochrome P450 2C9) read?
Answer: inconclusive

Question: And the EC50 [13]?
Answer: > 120 µM (not active)

Question: And the EC50 [14]?
Answer: > 120 µM (not active)

Question: What about the EC50 [15] of the same compound?
Answer: 12.7 µM (active)

Question: What does the source list for CCNc1ncc2nc(-c3cn(C)c4ccccc34)c(=O)n(-c3ccccc3)c2n1?
Answer: AC50 (Cytochrome P450 2C9): inconclusive; AC50 (Cytochrome P450 3A4): 6.31 µM (inconclusive); AC50 (Cytochrome P450 2D6): 25.1 µM (inconclusive); AC50 (Cytochrome P450 1A2): 15.8 µM (inconclusive)

Question: With COc1ccc(C2/C=C\CN(S(=O)(=O)c3ccc(C)cc3)[C@H](Cc3ccccc3)C(=O)N2Cc2ccc(F)cc2)cc1 (some centres not stated) as the compound, how does the AC50 [16] read?
Answer: > 70 µM (inactive)

Question: What about the AC50 [6] of the same compound?
Answer: 25.5 µM (active)

Question: And the AC50 [8]?
Answer: 12.9 µM (active)

Question: For O=C1NC(=O)C(=Cc2ccc3ccccc3c2)C(=O)N1, which IC50 (Genome polyprotein) is on record?
Answer: 50.8 µM (active)

From ChEMBL document CHEMBL1201862, “PubChem BioAssay data set” (2004)
